Reference: US20050197350A1, “Novel quinoline, tetrahydroquinazoline, and pyrimidine derivatives and methods of treatment related to the use thereof” (TAISHO PHARMACEUTICAL CO., LTD., priority 2003, published 2005)

test system: MCH receptors; experiment: MCH receptor activity class (method not given); details: class 1-3 by percent of control at 10^-7 M or IC50

Question: CN(C)c1ccnc(N[C@H]2CC[C@@H](CNC(=O)Cc3ccc(F)cc3)CC2)n1 [compound 413] was tested. Which class did it give?
Answer: The class was 3 (Class 3 The value of percent of control at 10^−7 M was more than 60% or the value of IC50 was more than 200 nM.).

Question: Which class does the source give for COc1ccc(CC(=O)NC[C@H]2CC[C@@H](Nc3nccc(N(C)C)n3)CC2)cc1 [compound 414, N-[(cis-4-{[4-(dimethylamino)pyrimidin-2-yl]amino}cyclohexyl)methyl]-2-(4-methoxyphenyl)acetamide] here?
Answer: The class was 2 (Class 2: The value of percent of control at 10^−7 M was from 40% to 60% or the value of IC′50 was from 50 nM to 200 nM.).

Question: For Cc1cc(C(=O)NC[C@H]2CC[C@@H](Nc3nccc(N(C)C)n3)CC2)c(C(F)(F)F)o1 [compound 415], which class is on record?
Answer: Its class is 3 (Class 3 The value of percent of control at 10^−7 M was more than 60% or the value of IC50 was more than 200 nM.).

Question: Which class does the source give for Cc1cc(C(=O)NC[C@H]2CC[C@@H](Nc3nccc(N(C)C)n3)CC2)c(C)o1 [compound 416] here?
Answer: The class was 3 (Class 3 The value of percent of control at 10^−7 M was more than 60% or the value of IC50 was more than 200 nM.).

Question: With CCOc1ccccc1C(=O)NC[C@H]1CC[C@@H](Nc2nccc(N(C)C)n2)CC1 [compound 417] as the molecule, how does the class read?
Answer: The class was 3 (Class 3 The value of percent of control at 10^−7 M was more than 60% or the value of IC50 was more than 200 nM.).

Question: For CN(C)c1ccnc(N[C@H]2CC[C@@H](CNC(=O)c3ccc(F)c(Cl)c3)CC2)n1 [compound 418], which class is on record?
Answer: The class was 3 (Class 3 The value of percent of control at 10^−7 M was more than 60% or the value of IC50 was more than 200 nM.).

Question: How did the class turn out when Cc1ccc(C(=O)NC[C@H]2CC[C@@H](Nc3nccc(N(C)C)n3)CC2)cc1F [compound 419] was run?
Answer: The class was 3 (Class 3 The value of percent of control at 10^−7 M was more than 60% or the value of IC50 was more than 200 nM.).

Question: CN(C)c1ccnc(N[C@H]2CC[C@@H](CNC(=O)CC3CCCC3)CC2)n1 [compound 420] was tested. Which class did it give?
Answer: Its class is 3 (Class 3 The value of percent of control at 10^−7 M was more than 60% or the value of IC50 was more than 200 nM.).

Question: With COc1cc(OC)cc(C(=O)NC[C@H]2CC[C@@H](Nc3nccc(N(C)C)n3)CC2)c1 [compound 421] as the molecule, how does the class read?
Answer: Its class is 3 (Class 3 The value of percent of control at 10^−7 M was more than 60% or the value of IC50 was more than 200 nM.).

Question: How did the class turn out when CN(C)c1ccnc(N[C@H]2CC[C@@H](CNC(=O)c3ccc(C#N)cc3)CC2)n1 [compound 422] was run?
Answer: The class was 3 (Class 3 The value of percent of control at 10^−7 M was more than 60% or the value of IC50 was more than 200 nM.).

Question: Which class does the source give for CN(C)c1ccnc(N[C@H]2CC[C@@H](CNC(=O)c3cc(C(F)(F)F)cc(C(F)(F)F)c3)CC2)n1 [compound 423, N-[(cis-4-{[4-(dimethylamino)pyrimidin-2-yl]amino}cyclohexyl)methyl]-3,5-bis(trifluoromethyl)benzamide] here?
Answer: Its class is 2 (Class 2: The value of percent of control at 10^−7 M was from 40% to 60% or the value of IC′50 was from 50 nM to 200 nM.).

Question: CN(C)c1ccnc(N[C@H]2CC[C@@H](CNC(=O)/C=C/c3ccc([N+](=O)[O-])cc3)CC2)n1 [compound 424] was tested. Which class did it give?
Answer: The class was 1 (Class 1: The value of percent of control at 10^−7 M was less than 40% or the value of IC50 was less than 50 nM.).

Question: How did the class turn out when CN(C)c1ccnc(N[C@H]2CC[C@@H](CNC(=O)Cc3ccccc3Br)CC2)n1 [compound 425] was run?
Answer: Its class is 2 (Class 2: The value of percent of control at 10^−7 M was from 40% to 60% or the value of IC′50 was from 50 nM to 200 nM.).

Question: Which class does the source give for Cc1cc(C(=O)NC[C@H]2CC[C@@H](Nc3nccc(N(C)C)n3)CC2)ccc1F [compound 426] here?
Answer: Its class is 3 (Class 3 The value of percent of control at 10^−7 M was more than 60% or the value of IC50 was more than 200 nM.).

Question: CN(C)c1ccnc(N[C@H]2CC[C@@H](CNC(=O)c3ccccc3SC(F)F)CC2)n1 [compound 427] was tested. Which class did it give?
Answer: Its class is 3 (Class 3 The value of percent of control at 10^−7 M was more than 60% or the value of IC50 was more than 200 nM.).

Question: How did the class turn out when CN(C)c1ccnc(N[C@H]2CC[C@@H](CNC(=O)c3cc(Cl)sc3Cl)CC2)n1 [compound 428] was run?
Answer: Its class is 3 (Class 3 The value of percent of control at 10^−7 M was more than 60% or the value of IC50 was more than 200 nM.).

Question: How did the class turn out when CCCSc1ncccc1C(=O)NC[C@H]1CC[C@@H](Nc2nccc(N(C)C)n2)CC1 [compound 429] was run?
Answer: Its class is 2 (Class 2: The value of percent of control at 10^−7 M was from 40% to 60% or the value of IC′50 was from 50 nM to 200 nM.).

Question: How did the class turn out when CN(C)c1ccnc(N[C@H]2CC[C@@H](CNC(=O)c3cc(C(C)(C)C)nn3Cc3ccccc3)CC2)n1 [compound 430] was run?
Answer: The class was 3 (Class 3 The value of percent of control at 10^−7 M was more than 60% or the value of IC50 was more than 200 nM.).

Question: CN(C)c1ccnc(N[C@H]2CC[C@@H](CNC(=O)c3cc(C(C)(C)C)nn3C)CC2)n1 [compound 431] was tested. Which class did it give?
Answer: Its class is 3 (Class 3 The value of percent of control at 10^−7 M was more than 60% or the value of IC50 was more than 200 nM.).

Question: Which class does the source give for C/C(=C\c1ccccc1)C(=O)NC[C@H]1CC[C@@H](Nc2nccc(N(C)C)n2)CC1 [compound 432] here?
Answer: The class was 3 (Class 3 The value of percent of control at 10^−7 M was more than 60% or the value of IC50 was more than 200 nM.).

Question: How did the class turn out when CN(C)c1ccnc(N[C@H]2CC[C@@H](CNC(=O)c3cncc(Br)c3)CC2)n1 [compound 433] was run?
Answer: The class was 3 (Class 3 The value of percent of control at 10^−7 M was more than 60% or the value of IC50 was more than 200 nM.).

Question: With CN(C)c1ccnc(N[C@H]2CC[C@@H](CNC(=O)Cc3cccc4ccccc34)CC2)n1 [compound 434] as the molecule, how does the class read?
Answer: The class was 1 (Class 1: The value of percent of control at 10^−7 M was less than 40% or the value of IC50 was less than 50 nM.).

Question: Which class does the source give for Cc1cc(C(=O)NC[C@H]2CC[C@@H](Nc3nccc(N(C)C)n3)CC2)nn1C(C)(C)C [compound 435, 1-tert-butyl-N-[(cis-4-{[4-(dimethylamino)pyriniidin-2-yl]amino}cyclohexyl)methyl]-5-methyl-1H-pyrazole-3-carboxamide] here?
Answer: Its class is 3 (Class 3 The value of percent of control at 10^−7 M was more than 60% or the value of IC50 was more than 200 nM.).

Question: CN(C)c1ccnc(N[C@H]2CC[C@@H](CNC(=O)c3csc4ccccc34)CC2)n1 [compound 436] was tested. Which class did it give?
Answer: The class was 3 (Class 3 The value of percent of control at 10^−7 M was more than 60% or the value of IC50 was more than 200 nM.).

Question: Which class does the source give for CN(C)c1ccnc(N[C@H]2CC[C@@H](CNC(=O)c3ccc(-c4ccccc4)cc3)CC2)n1 [compound 437] here?
Answer: Its class is 3 (Class 3 The value of percent of control at 10^−7 M was more than 60% or the value of IC50 was more than 200 nM.).

Question: CN(C)c1ccnc(N[C@H]2CC[C@@H](CNC(=O)c3ccccc3Br)CC2)n1 [compound 438] was tested. Which class did it give?
Answer: The class was 3 (Class 3 The value of percent of control at 10^−7 M was more than 60% or the value of IC50 was more than 200 nM.).

Question: Which class does the source give for CN(C)c1ccnc(N[C@H]2CC[C@@H](CNC(=O)c3c(Cl)cccc3Cl)CC2)n1 [compound 439] here?
Answer: The class was 3 (Class 3 The value of percent of control at 10^−7 M was more than 60% or the value of IC50 was more than 200 nM.).

Question: How did the class turn out when CN(C)c1ccnc(N[C@H]2CC[C@@H](CNC(=O)c3ccccc3I)CC2)n1 [compound 440] was run?
Answer: Its class is 3 (Class 3 The value of percent of control at 10^−7 M was more than 60% or the value of IC50 was more than 200 nM.).

Question: Cc1ccccc1C(=O)NC[C@H]1CC[C@@H](Nc2nccc(N(C)C)n2)CC1 [compound 441] was tested. Which class did it give?
Answer: The class was 3 (Class 3 The value of percent of control at 10^−7 M was more than 60% or the value of IC50 was more than 200 nM.).

Question: Which class does the source give for CN(C)c1ccnc(N[C@H]2CC[C@@H](CNC(=O)c3cccc(Cl)c3Cl)CC2)n1 [compound 442] here?
Answer: The class was 3 (Class 3 The value of percent of control at 10^−7 M was more than 60% or the value of IC50 was more than 200 nM.).

Question: For CN(C)c1ccnc(N[C@H]2CC[C@@H](CNC(=O)c3cc(F)ccc3Cl)CC2)n1 [compound 443], which class is on record?
Answer: The class was 3 (Class 3 The value of percent of control at 10^−7 M was more than 60% or the value of IC50 was more than 200 nM.).

Question: CN(C)c1ccnc(N[C@H]2CC[C@@H](CNC(=O)c3cccc4c3-c3ccccc3C4=O)CC2)n1 [compound 444, N-[(cis-4-{[4-(dimethylamino)pyrimidin-2-yl]amino}cyclohexyl)methyl]-9-oxo-9H-fluorene-4-carboxamide] was tested. Which class did it give?
Answer: The class was 2 (Class 2: The value of percent of control at 10^−7 M was from 40% to 60% or the value of IC′50 was from 50 nM to 200 nM.).

Question: CN(C)c1ccnc(N[C@H]2CC[C@@H](CNC(=O)c3c(F)ccc(F)c3F)CC2)n1 [compound 445] was tested. Which class did it give?
Answer: The class was 3 (Class 3 The value of percent of control at 10^−7 M was more than 60% or the value of IC50 was more than 200 nM.).

Question: For CN(C)c1ccnc(N[C@H]2CC[C@@H](CNC(=O)c3cccc(F)c3F)CC2)n1 [compound 446], which class is on record?
Answer: The class was 3 (Class 3 The value of percent of control at 10^−7 M was more than 60% or the value of IC50 was more than 200 nM.).

Question: For CN(C)c1ccnc(N[C@H]2CC[C@@H](CNC(=O)c3c(F)cccc3F)CC2)n1 [compound 447], which class is on record?
Answer: Its class is 3 (Class 3 The value of percent of control at 10^−7 M was more than 60% or the value of IC50 was more than 200 nM.).

Question: CN(C)c1ccnc(N[C@H]2CC[C@@H](CNC(=O)c3c(F)cccc3C(F)(F)F)CC2)n1 [compound 448] was tested. Which class did it give?
Answer: Its class is 3 (Class 3 The value of percent of control at 10^−7 M was more than 60% or the value of IC50 was more than 200 nM.).

Question: How did the class turn out when Cc1cc(C)c(C(=O)NC[C@H]2CC[C@@H](Nc3nccc(N(C)C)n3)CC2)c(C)c1 [compound 449, N-[(cis-4-{[4-(dimethylamino)pyrimidin-2-yl]amino}cyclohexyl)methyl]-2,4,6-trimethylbenzamide] was run?
Answer: Its class is 2 (Class 2: The value of percent of control at 10^−7 M was from 40% to 60% or the value of IC′50 was from 50 nM to 200 nM.).

Question: CN(C)c1ccnc(N[C@H]2CC[C@@H](CNC(=O)c3c(F)cccc3Cl)CC2)n1 [compound 450] was tested. Which class did it give?
Answer: Its class is 3 (Class 3 The value of percent of control at 10^−7 M was more than 60% or the value of IC50 was more than 200 nM.).

same assay, conditions: class by percent of control at 10^-7 M or IC50

Question: Which class does the source give for CN(C)c1ccnc(N[C@H]2CC[C@@H](CNC(=O)c3cccc(C(F)(F)F)c3F)CC2)n1 [compound 409] here?
Answer: The class was 3 (Class 3 The value of percent of control at 10^−7 M was more than 60% or the value of IC50 was more than 200 nM.).

Question: How did the class turn out when CN(C)c1ccnc(N[C@H]2CC[C@@H](CNC(=O)c3cc(C(F)(F)F)ccc3F)CC2)n1 [compound 410] was run?
Answer: The class was 3 (Class 3 The value of percent of control at 10^−7 M was more than 60% or the value of IC50 was more than 200 nM.).

Question: How did the class turn out when COc1cccc(CC(=O)NC[C@H]2CC[C@@H](Nc3nccc(N(C)C)n3)CC2)c1 [compound 412] was run?
Answer: Its class is 2 (Class 2: The value of percent of control at 10^−7 M was from 40% to 60% or the value of IC′50 was from 50 nM to 200 nM.).
